Assay results published in ChEMBL document CHEMBL4340503, “Antiviral activities of Janus-type nucleosides and their related oxime-intermediates” (Bioorg Med Chem, 2019).
Values after ≈ are worked out from the molar mass of the structure shown.

Legend:
[1] = Cytotoxicity against African green monkey Vero cells infected with Herpes simplex virus 1 after 72 hrs by MTT assay; format: cell-based; conditions: chlorocebus sabaeus, read-out: TC50
Human alphaherpesvirus 1 = assay: Antiviral activity against Herpes simplex virus 1 infected in African green monkey Vero cells assessed as inhibition of virus-induced cytopathogenic effect by microscopic analysis; format: functional, organism-based; conditions: Human alphaherpesvirus 1, Vero
[2] = (§1) Selectivity index, ratio of TC50 against African green monkey Vero cells infected with Herpes simplex virus 1 after 72 hrs by MTT assay to IC50 against Herpes simplex virus 1 infected in African green monkey Vero cells assessed as inhibition of virus-induced cytopathogenic effect by microscopic analysis; format: toxicity; conditions: read-out: Selectivity Index
Influenza A virus H3N2 = assay: Antiviral activity against Influenza A virus H3N2 infected in African green monkey Vero cells assessed as inhibition of virus-induced cytopathogenic effect by microscopic analysis; format: functional, organism-based
[3] = as §1, with “Influenza A” for “Herpes simplex”, “H3N2” for “1”; format: toxicity; conditions: read-out: Selectivity Index
[4] = Cytotoxicity against African green monkey Vero cells infected with Herpes simplex virus 2 after 72 hrs by MTT assay; format: cell-based; conditions: chlorocebus sabaeus, read-out: TC50
[5] = Cytotoxicity against African green monkey Vero cells infected with Coxsackievirus B3 after 72 hrs by MTT assay; format: cell-based; conditions: chlorocebus sabaeus, read-out: TC50
[6] = Cytotoxicity against African green monkey Vero cells infected with Hepatitis C virus after 72 hrs by MTT assay; format: cell-based; conditions: chlorocebus sabaeus, read-out: TC50
[7] = Cytotoxicity against African green monkey Vero cells infected with Influenza A virus H3N2 after 72 hrs by MTT assay; format: cell-based; conditions: chlorocebus sabaeus, read-out: TC50
[8] = Cytotoxicity against African green monkey Vero cells infected with Hepatitis B virus after 72 hrs by MTT assay; format: cell-based; conditions: chlorocebus sabaeus, read-out: TC50
[9] = Cytotoxicity against African green monkey Vero cells infected with Human papillomavirus after 72 hrs by MTT assay; format: cell-based; conditions: chlorocebus sabaeus, read-out: TC50
Human alphaherpesvirus 2 = assay: Antiviral activity against Herpes simplex virus 2 infected in African green monkey Vero cells assessed as inhibition of virus-induced cytopathogenic effect by microscopic analysis; format: functional, organism-based; conditions: Human alphaherpesvirus 2, Vero
Coxsackievirus B3 = assay: Antiviral activity against Coxsackievirus B3 infected in African green monkey Vero cells assessed as inhibition of virus-induced cytopathogenic effect by microscopic analysis; format: functional, organism-based; conditions: Enterovirus B
Hepatitis C virus = assay: Antiviral activity against Hepatitis C virus infected in African green monkey Vero cells assessed as inhibition of virus-induced cytopathogenic effect by microscopic analysis; format: functional, organism-based, Hepacivirus hominis
Human papillomavirus = assay: Antiviral activity against Human papillomavirus infected in African green monkey Vero cells assessed as inhibition of virus-induced cytopathogenic effect by microscopic analysis; format: functional, organism-based
[10] = as §1, with “2” for “1”; format: toxicity; conditions: read-out: Selectivity Index
[11] = Selectivity index, ratio of TC50 against African green monkey Vero cells infected with Coxsackievirus B3 after 72 hrs by MTT assay to IC50 against Coxsackievirus B3 infected in African green monkey Vero cells assessed as inhibition of virus-induced cytopathogenic effect by microscopic analysis; format: toxicity; conditions: read-out: Selectivity Index
[12] = Selectivity index, ratio of TC50 against African green monkey Vero cells infected with Hepatitis C virus after 72 hrs by MTT assay to IC50 against Hepatitis C virus infected in African green monkey Vero cells assessed as inhibition of virus-induced cytopathogenic effect by microscopic analysis; format: toxicity; conditions: read-out: Selectivity Index
[13] = Selectivity index, ratio of TC50 against African green monkey Vero cells infected with Hepatitis B virus after 72 hrs by MTT assay to IC50 against Hepatitis B virus infected in African green monkey Vero cells assessed as inhibition of virus-induced cytopathogenic effect by microscopic analysis; format: toxicity; conditions: read-out: Selectivity Index
[14] = Selectivity index, ratio of TC50 against African green monkey Vero cells infected with Human papillomavirus after 72 hrs by MTT assay to IC50 against Human papillomavirus infected in African green monkey Vero cells assessed as inhibition of virus-induced cytopathogenic effect by microscopic analysis; format: toxicity; conditions: read-out: Selectivity Index

Row | Compound | CC50 at 72 h [1] | IC50 (Human alphaherpesvirus 1) | selectivity ratio at 72 h [2] | IC50 (Influenza A virus H3N2) | also measured
1 | COc1cccc(CNc2ncnc(Cl)c2/C=N/O)c1 | 2.31 µg/mL (≈ 7.89 µM) | 0.48 µg/mL (≈ 1.64 µM) | 4.81 | – | –
2 | O/N=C/c1c(Cl)ncnc1NCc1ccc(Br)cc1 | 12.8 µg/mL (≈ 37.6 µM) | 0.82 µg/mL (≈ 2.4 µM) | 15.7 | – | –
3 | Nc1ncn([C@H]2C[C@H](O)[C@@H](CO)O2)c2nc(=O)[nH]c(=O)c1-2 | 577 µg/mL (≈ 1960 µM) | > 333 µg/mL | – | > 111 µg/mL | –
4 | COc1ccc(Cn2c(=O)nc(N)c3c(=O)[nH]c(N)nc32)cc1 | 18.5 µg/mL (≈ 58.9 µM) | > 6.17 µg/mL | – | > 55.6 µg/mL | –
5 | O/N=C/c1c(Cl)ncnc1NCc1ccc(F)cc1 | 12.8 µg/mL (≈ 45.7 µM) | > 2.47 µg/mL | – | – | –
6 | Nc1ncn([C@H]2O[C@@H](CO)[C@H](O)[C@@H]2O)c2nc(=O)[nH]c(=O)c1-2 | 577 µg/mL (≈ 1850 µM) | 333 µg/mL (≈ 1070 µM) | 1.7 | > 333 µg/mL | –
7 | Cc1ccc(CNc2ncnc(Cl)c2/C=N/O)cc1 | 1.11 µg/mL (≈ 4.01 µM) | 0.21 µg/mL (≈ 0.759 µM) | 5.29 | – | –
8 | CO/N=C\c1c(Cl)ncnc1NCc1ccccc1OC | 80.1 µg/mL (≈ 261 µM) | 14.4 µg/mL (≈ 46.8 µM) | 5.58 | – | –
9 | Nc1ncnc2c1c(=O)[nH]c(=O)n2[C@H]1O[C@@H](CO)[C@H](O)[C@@H]1O | 40.5 µg/mL (≈ 130 µM) | > 30.2 µg/mL | – | > 33.3 µg/mL | –
10 | Nc1ccc(CNc2ncnc(Cl)c2/C=N/O)cc1 | 2.47 µg/mL (≈ 8.89 µM) | 0.47 µg/mL (≈ 1.69 µM) | 5.26 | – | –
11 | Nc1ncn([C@@H]2O[C@H](CO)[C@@H](O)[C@H]2O)c2nc(=O)[nH]c(=O)c1-2 | 577 µg/mL (≈ 1850 µM) | > 333 µg/mL | – | > 333 µg/mL | –
12 | C[C@H]1O[C@@H](n2cnc(N)c3c(=O)[nH]c(=O)nc2-3)[C@H](O)[C@@H]1O | 500 µg/mL (≈ 1690 µM) | 167 µg/mL (≈ 564 µM) | 3 | 167 µg/mL (≈ 564 µM) | selectivity ratio at 72 h [3]: 3
13 | COc1nc(N)nc2[nH]c(=O)nc(N)c12 | 48.1 µg/mL (≈ 231 µM) | 7.31 µg/mL (≈ 35.1 µM) | 6.6 | > 9.26 µg/mL | –
14 | COc1ccccc1CNc1ncnc(Cl)c1/C=N/O | 0.86 µg/mL (≈ 2.94 µM) | 0.04 µg/mL (≈ 0.137 µM) | 21.5 | 0.27 µg/mL (≈ 0.922 µM) | selectivity ratio at 72 h [3]: 4.41; CC50 at 72 h [4]: 1.11 µg/mL (≈ 3.79 µM); CC50 at 72 h [5]: 0.86 µg/mL (≈ 2.94 µM); CC50 at 72 h [6]: 32.4 µg/mL (≈ 111 µM); CC50 at 72 h [7]: 1.19 µg/mL (≈ 4.07 µM); CC50 at 72 h [8]: 0.063 µg/mL (≈ 0.215 µM); CC50 at 72 h [9]: 13.5 µg/mL (≈ 46.1 µM); IC50 (Human alphaherpesvirus 2): 0.29 µg/mL (≈ 0.991 µM); IC50 (Coxsackievirus B3): 0.05 µg/mL (≈ 0.171 µM); IC50 (Hepatitis C virus): 1.19 µg/mL (≈ 4.07 µM); IC50 (Human papillomavirus): 7.9 µg/mL (≈ 27 µM); selectivity ratio at 72 h [10]: 3.83; selectivity ratio at 72 h [11]: 17.2; selectivity ratio at 72 h [12]: 27.2; selectivity ratio at 72 h [13]: 25.3; selectivity ratio at 72 h [14]: 1.71
15 | O/N=C/c1c(Cl)ncnc1NCc1ccc(Cl)cc1 | 3.18 µg/mL (≈ 10.7 µM) | 0.57 µg/mL (≈ 1.92 µM) | 5.58 | – | –
16 | Nc1ncn([C@@H]2O[C@H](CO)[C@@H](O)[C@@H]2O)c2nc(=O)[nH]c(=O)c1-2 | 1.78 µg/mL (≈ 5.72 µM) | > 0.59 µg/mL | – | > 0.46 µg/mL | –
17 | COc1ccccc1CCCNc1ncnc(Cl)c1/C=N/O | 1.29 µg/mL (≈ 4.02 µM) | > 0.19 µg/mL | – | – | –

Row | Compound | CC50 at 72 h [1] | IC50 (Human alphaherpesvirus 1) | selectivity ratio at 72 h [2] | IC50 (Influenza A virus H3N2) | also measured
18 | COc1ccc(Cn2c(=O)nc(N)c3c(OC)nc(N)nc32)cc1 | 55.6 µg/mL (≈ 169 µM) | 12.9 µg/mL (≈ 39.3 µM) | 4.3 | 18.5 µg/mL (≈ 56.4 µM) | selectivity ratio at 72 h [3]: 3.3
19 | COc1ccccc1Nc1ncnc(Cl)c1/C=N/O | 8.9 µg/mL (≈ 31.9 µM) | 1.43 µg/mL (≈ 5.13 µM) | 6.22 | – | –
20 | CO/N=C/c1c(Cl)ncnc1NCc1ccccc1OC | 38.5 µg/mL (≈ 126 µM) | 4.28 µg/mL (≈ 14 µM) | 9 | – | –
21 | NC(=O)c1ncn([C@@H]2O[C@H](CO)[C@@H](O)[C@H]2O)n1 [RIBAVIRIN] | > 200 µg/mL | 38.5 µg/mL (≈ 158 µM) | > 5.2 | – | –
22 | COc1ccccc1CNc1ncnc(Cl)c1/C=N\O | 10.7 µg/mL (≈ 36.5 µM) | 4.79 µg/mL (≈ 16.4 µM) | 2.23 | – | –
23 | C[C@H]1O[C@@H](n2c(=O)nc(N)c3c(=O)[nH]c(N)nc32)[C@H](O)[C@@H]1O | 8.56 µg/mL (≈ 27.6 µM) | 2.08 µg/mL (≈ 6.7 µM) | 4.1 | > 4.12 µg/mL | –
24 | Nc1ncn([C@@H]2O[C@H](CO)C[C@H]2O)c2nc(=O)[nH]c(=O)c1-2 | 347 µg/mL (≈ 1170 µM) | 75.9 µg/mL (≈ 257 µM) | 4.6 | > 83.3 µg/mL | –
25 | COc1ccccc1CCNc1ncnc(Cl)c1/C=N/O | 80.1 µg/mL (≈ 261 µM) | 3.56 µg/mL (≈ 11.6 µM) | 22.5 | – | –
26 | Nc1nc2c(c(N)nc(=O)n2[C@@H]2O[C@H](CO)[C@@H](O)[C@H]2O)c(=O)[nH]1 | 144 µg/mL (≈ 442 µM) | > 83.3 µg/mL | – | 9.26 µg/mL (≈ 28.4 µM) | selectivity ratio at 72 h [3]: 13
27 | Nc1nc(=O)n([C@@H]2O[C@H](CO)[C@@H](O)[C@H]2O)c2nc[nH]c(=O)c12 | 2.97 µg/mL (≈ 9.54 µM) | > 0.79 µg/mL | – | > 1.37 µg/mL | –
28 | COc1ccc(CNc2ncnc(Cl)c2/C=N/O)cc1 | 2.47 µg/mL (≈ 8.44 µM) | 0.35 µg/mL (≈ 1.2 µM) | 7.06 | – | –
29 | Nc1nc2[nH]c(=O)nc(N)c2c(=O)[nH]1 | 16 µg/mL (≈ 82.6 µM) | > 9.26 µg/mL | – | 27.8 µg/mL (≈ 143 µM) | –
30 | Nc1nc2c(c(N)nc(=O)n2[C@H]2C[C@H](O)[C@@H](CO)O2)c(=O)[nH]1 | 347 µg/mL (≈ 1120 µM) | > 167 µg/mL | – | > 250 µg/mL | –
31 | CC(C)(C)c1ccc(CNc2ncnc(Cl)c2/C=N/O)cc1 | 0.26 µg/mL (≈ 0.816 µM) | 0.05 µg/mL (≈ 0.157 µM) | 5.2 | 0.27 µg/mL (≈ 0.847 µM) | selectivity ratio at 72 h [3]: 1.78; CC50 at 72 h [4]: 0.53 µg/mL (≈ 1.66 µM); CC50 at 72 h [5]: 0.64 µg/mL (≈ 2.01 µM); CC50 at 72 h [6]: 19.3 µg/mL (≈ 60.5 µM); CC50 at 72 h [7]: 0.48 µg/mL (≈ 1.51 µM); CC50 at 72 h [8]: 0.0397 µg/mL (≈ 0.124 µM); CC50 at 72 h [9]: 9.8 µg/mL (≈ 30.7 µM); IC50 (Human alphaherpesvirus 2): 0.04 µg/mL (≈ 0.125 µM); IC50 (Coxsackievirus B3): 0.12 µg/mL (≈ 0.376 µM); IC50 (Hepatitis C virus): 1.15 µg/mL (≈ 3.61 µM); IC50 (Human papillomavirus): 5.6 µg/mL (≈ 17.6 µM); selectivity ratio at 72 h [10]: 13.2; selectivity ratio at 72 h [11]: 4.92; selectivity ratio at 72 h [12]: 17.8; selectivity ratio at 72 h [13]: 17.9; selectivity ratio at 72 h [14]: 1.75
32 | O/N=C/c1c(Cl)ncnc1NCc1ccccc1 | 7.41 µg/mL (≈ 28.2 µM) | 1.92 µg/mL (≈ 7.31 µM) | 3.86 | – | –
33 | CC(C)(C)c1ccc(CNc2ncnc(Cl)c2/C=N\O)cc1 | 1.43 µg/mL (≈ 4.49 µM) | 0.48 µg/mL (≈ 1.51 µM) | 2.97 | – | –
34 | Nc1ncnc2c1c(=O)[nH]c(=O)n2[C@@H]1O[C@H](CO)[C@@H](O)[C@@H]1O | > 250 µg/mL | > 83.3 µg/mL | – | > 333 µg/mL | –
